Data taken from the supplement of paper PMC10307832.

What was measured:
Experiment in all cases: relative viability (nuclei count vs DMSO), 5 days (fraction); higher = more cells survive
LCLC-97TM1 = tested on: LCLC-97TM1
How it was run: (§1)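 Lung cancer cell lines, seeded in 1536-well plates, were treated the following day by pin tool with a single drug or with five library-drug doses (not always all listed) in √10 steps on top of a fixed anchor-drug dose. Cells were fixed and nuclei stained in one step after 5 days, and nuclei were counted. Relative viability is the nuclei count for treated wells divided by that for vehicle wells, reported as medians of duplicate plates.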

NCI-H1944 = tested on: NCI-H1944
How it was run: as §1

HCC-78 = tested on: HCC-78
How it was run: as §1

EPLC-272H = tested on: EPLC-272H
How it was run: as §1

NCI-H1915 = tested on: NCI-H1915
How it was run: as §1

UMC-11 = tested on: UMC-11
How it was run: as §1

LC-2-ad = tested on: LC-2-ad
How it was run: as §1

NCI-H2085 = tested on: NCI-H2085
How it was run: as §1

NCI-H1792 = tested on: NCI-H1792
How it was run: as §1

NCI-H1755 = tested on: NCI-H1755
How it was run: as §1

COR-L 105 = tested on: COR-L 105
How it was run: as §1

SW 900 = tested on: SW 900
How it was run: as §1

NCI-H1793 = tested on: NCI-H1793
How it was run: as §1

SK-LU-1 = tested on: SK-LU-1
How it was run: as §1

NCI-H460 = tested on: NCI-H460
How it was run: as §1

HCC-366 = tested on: HCC-366
How it was run: as §1

LU99A = tested on: LU99A
How it was run: as §1

NCI-H358 = tested on: NCI-H358
How it was run: as §1

NCI-H2170 = tested on: NCI-H2170
How it was run: as §1

A-427 = tested on: A-427
How it was run: as §1

LXF-289 = tested on: LXF-289
How it was run: as §1

NCI-H1975 = tested on: NCI-H1975
How it was run: as §1

HOP-62 = tested on: HOP-62
How it was run: as §1

## Oc1nc(-c2ccc(C(F)(F)F)cc2)nc2c1CSCC2 [XAV939] + COc1cccc2cc(-c3nc([C@H]4CC[C@H](C(=O)O)CC4)n4ncnc(N)c34)[nH]c12 [OSI-027] (partner 0.5 µM)
LCLC-97TM1; first compound 0.08 µM
  relative viability: 0.643
LCLC-97TM1; first compound 0.253 µM
  relative viability: 0.566
LCLC-97TM1; first compound 0.8 µM
  relative viability: 0.545
LCLC-97TM1; first compound 2.53 µM
  relative viability: 0.609
NCI-H1944; first compound 0.08 µM
  relative viability: 0.441
NCI-H1944; first compound 0.253 µM
  relative viability: 0.393
NCI-H1944; first compound 0.8 µM
  relative viability: 0.403
NCI-H1944; first compound 2.53 µM
  relative viability: 0.367
HCC-78; first compound 0.08 µM
  relative viability: 0.341
HCC-78; first compound 0.253 µM
  relative viability: 0.361
HCC-78; first compound 0.8 µM
  relative viability: 0.356
HCC-78; first compound 2.53 µM
  relative viability: 0.297
EPLC-272H; first compound 0.08 µM
  relative viability: 0.312
EPLC-272H; first compound 0.253 µM
  relative viability: 0.22
EPLC-272H; first compound 0.8 µM
  relative viability: 0.261
EPLC-272H; first compound 2.53 µM
  relative viability: 0.314
NCI-H1915; first compound 0.08 µM
  relative viability: 0.707
NCI-H1915; first compound 0.253 µM
  relative viability: 0.321
NCI-H1915; first compound 0.8 µM
  relative viability: 0.597
NCI-H1915; first compound 2.53 µM
  relative viability: 0.589
UMC-11; first compound 0.08 µM
  relative viability: 0.456
UMC-11; first compound 0.253 µM
  relative viability: 0.478
UMC-11; first compound 0.8 µM
  relative viability: 0.538
UMC-11; first compound 2.53 µM
  relative viability: 0.44
LC-2-ad; first compound 0.08 µM
  relative viability: 0.907
LC-2-ad; first compound 0.253 µM
  relative viability: 0.815
LC-2-ad; first compound 0.8 µM
  relative viability: 0.889
LC-2-ad; first compound 2.53 µM
  relative viability: 0.864
NCI-H2085; first compound 0.08 µM
  relative viability: 0.638
NCI-H2085; first compound 0.253 µM
  relative viability: 0.686
NCI-H2085; first compound 0.8 µM
  relative viability: 0.958
NCI-H2085; first compound 2.53 µM
  relative viability: 0.625
NCI-H1792; first compound 0.08 µM
  relative viability: 0.82
NCI-H1792; first compound 0.253 µM
  relative viability: 0.677
NCI-H1792; first compound 0.8 µM
  relative viability: 0.839
NCI-H1792; first compound 2.53 µM
  relative viability: 0.672
NCI-H1755; first compound 0.08 µM
  relative viability: 0.731
NCI-H1755; first compound 0.253 µM
  relative viability: 0.683
NCI-H1755; first compound 0.8 µM
  relative viability: 0.739
NCI-H1755; first compound 2.53 µM
  relative viability: 0.585
COR-L 105; first compound 0.08 µM
  relative viability: 0.722
COR-L 105; first compound 0.253 µM
  relative viability: 0.589
COR-L 105; first compound 0.8 µM
  relative viability: 0.5
COR-L 105; first compound 2.53 µM
  relative viability: 0.482
SW 900; first compound 0.08 µM
  relative viability: 0.779
SW 900; first compound 0.253 µM
  relative viability: 0.572
SW 900; first compound 0.8 µM
  relative viability: 0.687
SW 900; first compound 2.53 µM
  relative viability: 0.476
NCI-H1793; first compound 0.08 µM
  relative viability: 0.308
NCI-H1793; first compound 0.253 µM
  relative viability: 0.232
NCI-H1793; first compound 0.8 µM
  relative viability: 0.298
NCI-H1793; first compound 2.53 µM
  relative viability: 0.27
SK-LU-1; first compound 0.08 µM
  relative viability: 0.387
SK-LU-1; first compound 0.253 µM
  relative viability: 0.339
SK-LU-1; first compound 0.8 µM
  relative viability: 0.394
SK-LU-1; first compound 2.53 µM
  relative viability: 0.34
NCI-H460; first compound 0.08 µM
  relative viability: 0.904
NCI-H460; first compound 0.253 µM
  relative viability: 0.555
NCI-H460; first compound 0.8 µM
  relative viability: 0.745
NCI-H460; first compound 2.53 µM
  relative viability: 0.631
HCC-366; first compound 0.08 µM
  relative viability: 0.962
HCC-366; first compound 0.253 µM
  relative viability: 0.666
HCC-366; first compound 0.8 µM
  relative viability: 1.03
HCC-366; first compound 2.53 µM
  relative viability: 0.767
LU99A; first compound 0.08 µM
  relative viability: 0.303
LU99A; first compound 0.253 µM
  relative viability: 0.348
LU99A; first compound 0.8 µM
  relative viability: 0.329
LU99A; first compound 2.53 µM
  relative viability: 0.268
NCI-H358; first compound 0.08 µM
  relative viability: 0.793
NCI-H358; first compound 0.253 µM
  relative viability: 0.624
NCI-H358; first compound 0.8 µM
  relative viability: 0.785
NCI-H358; first compound 2.53 µM
  relative viability: 0.605
NCI-H2170; first compound 0.08 µM
  relative viability: 0.749
NCI-H2170; first compound 0.253 µM
  relative viability: 0.493
NCI-H2170; first compound 0.8 µM
  relative viability: 0.643
NCI-H2170; first compound 2.53 µM
  relative viability: 0.611
A-427; first compound 0.08 µM
  relative viability: 0.49
A-427; first compound 0.253 µM
  relative viability: 0.427
A-427; first compound 0.8 µM
  relative viability: 0.419
A-427; first compound 2.53 µM
  relative viability: 0.393
LXF-289; first compound 0.08 µM
  relative viability: 0.817
LXF-289; first compound 0.253 µM
  relative viability: 0.721
LXF-289; first compound 0.8 µM
  relative viability: 0.746
LXF-289; first compound 2.53 µM
  relative viability: 0.658
NCI-H1975; first compound 0.08 µM
  relative viability: 0.829
NCI-H1975; first compound 0.253 µM
  relative viability: 0.639
NCI-H1975; first compound 0.8 µM
  relative viability: 0.681
NCI-H1975; first compound 2.53 µM
  relative viability: 0.526
HOP-62; first compound 0.08 µM
  relative viability: 1.01
HOP-62; first compound 0.253 µM
  relative viability: 0.773
HOP-62; first compound 0.8 µM
  relative viability: 0.763
HOP-62; first compound 2.53 µM
  relative viability: 0.574
